Entries after “also recorded” stand apart in the source; their conditions may differ.
How the values were obtained:
[1] = system: PA-I promoter activity in reporter strain PA27853/PLL-EGFP
[2] = system: membrane fractions of P. aeruginosa (PAO1); assay: ELISA binding to membrane fractions and solubilized membrane proteins of P. aeruginosa PAO1; parameters: species or system Pseudomonas aeruginosa; details: human cytokines, ELISA
[3] = system: pyocyanin (PCN) production in P. aeruginosa PAO1; format: cell-based, Pseudomonas aeruginosa
PA-I mRNA in PA27853 = PA-I mRNA in PA27853 exposed to Caco-2 cells or cell fractions with and without GalNac; format: cell-based, Pseudomonas aeruginosa; details: in the presence of GalNac
Description: Using Caco-2 intestinal epithelial cells, the issue of whether components of intestinal epithelial cells themselves played a role in triggering the expression of PA-I was addressed. Strain PA27853 was exposed to media (apical and basolateral) and Caco-2 cell fractions (cytosolic, nuclear, membrane) at various time intervals. PA-I mRNA was measured in PA27853 in response to the various Caco-2 cell media fractions in the presence and absence of GalNac, a sugar that binds specifically to PA-I and prevents P. aeruginosa adherence to Caco-2 cells. Media alone from Caco-2 cells grown in transwells (apical or basolateral) had no effect on PA-I expression. However, Caco-2 cell membrane fractions triggered the accumulation of a very high abundance of PA-I mRNA (>10 fold increase)-an effect that was attenuated in the presence of GalNac (FIG. 7A). These in vitro findings are in agreement with the above mouse studies showing that PA-I can be activated in response to contact with the intestinal epithelium, yet in the unstressed Caco-2 cell system, luminal contents (apical media) had no effect, similar to the control mice. […]

[4] = system: intestinal epithelial cells; details: cited from earlier work; for adhesion of P. aeruginosa to intestinal epithelial cells: 0.6% solution
[5] = system: PA-I expression in P. aeruginosa; format: cell-based, Pseudomonas aeruginosa
PA-IL in P. aeruginosa = details: cited from earlier work
PA-I = PA-I (Pseudomonas aeruginosa, UniProt Q05097); details: cited from earlier work
[6] = biological target: membrane proteins of P. aeruginosa strain PAO1 (whole fixed cells, membrane fractions, solubilized membrane proteins)

Chain of PA-I (Q05097 whole entry): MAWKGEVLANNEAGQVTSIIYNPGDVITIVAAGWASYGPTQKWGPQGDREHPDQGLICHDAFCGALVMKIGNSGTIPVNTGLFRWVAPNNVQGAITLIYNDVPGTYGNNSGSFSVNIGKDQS

With `C[C@H](O)C(=O)O` [L-lactate] the “PA-I promoter activity, candidate compounds in HDMEM” value (“PA-I promoter activity” below) [1] was “no effect”.

With “EGF: human cytokine tested for membrane binding” the “binding to P. aeruginosa cell membranes” value [2] was “No binding”.

With `OC[C@H]1O[C@@H](n2cnc3c(O)ncnc32)[C@H](O)[C@@H]1O` [inosine] the “inosine concentration inducing PA-I expression, fold less than adenosine of equivalent effect” value [1] was 10 fold, the “onset of PA-I expression compared with adenosine” value [1] was “earlier time point” and the “size of effect on PA-I expression compared with adenosine” value [1] was “greater”.

With `COC(=O)c1ccccc1N` [MA, methyl anthranilate] the “effect on ability of U-50,488 to enhance PCN production” value [3] was “inhibited the ability of U-50,488 to enhance PCN production”.

With `Nc1ncnc2c1ncn2[C@@H]1O[C@H](COP(=O)(O)O)[C@@H](O)[C@H]1O` [AMP] the “PA-I expression, nucleosides and nucleotides” value [1] was “no evident inducing effects”.

With TGF-β the “binding to P. aeruginosa cell membranes” value [2] was “No binding”.

In the case of `CC(=O)N[C@H]1C(O)O[C@H](CO)[C@H](O)[C@@H]1O` (stereo partly drawn) [GalNAc, N-acetyl-D-galactosamine], the “PA-I mRNA increase in PA27853 densely adhered to Caco-2 cells” value (PA-I mRNA in PA27853) is given as “nearly completely abolished”, the “PA-I mRNA increase triggered by Caco-2 cell membrane fractions” value (PA-I mRNA in PA27853) is given as “attenuated” and the “adhesion of P. aeruginosa to intestinal epithelial cells” value [4] is given as “markedly decreased adhesion”. For the same molecule, the “barrier function of intestinal epithelial cells” value [4] was “do not alter their barrier function”.

In the case of `Nc1ncnc2c1ncn2[C@@H]1O[C@H](CO)[C@@H](O)[C@H]1O` [adenosine], the “PA-I expression, nucleosides and nucleotides” value [1] is reported as “both dose- and time-dependent” and the “PA-I promoter activity” value [1] is reported as “enhanced fluorescence”.

In the case of `NC[C@H](O)c1ccc(O)c(O)c1` [norepinephrine], the “PA-I expression, in vitro studies” value [5] is given as “did not change PA-I expression; also recorded: not affected” and the “effect on QS-dependent virulence factor PA-IL” value (PA-IL in P. aeruginosa) is given as “can also affect”.

With IL-10: human cytokine the “binding to P. aeruginosa cell membranes” value [2] was “No binding”.

In the case of IL-4: human cytokine, the “binding to P. aeruginosa cell membranes” value [2] is reported as “No binding”.

With `Nc1ncnc2c1ncn2[C@@H]1O[C@H](COP(=O)(O)OP(=O)(O)OP(=O)(O)O)[C@@H](O)[C@H]1O` [ATP] the “PA-I expression, nucleosides and nucleotides” value [1] was “no evident inducing effects”.

For `OC[C@H]1O[C@H](OCC2O[C@@H](O)[C@H](O)[C@@H](O)[C@@H]2O)[C@H](O)[C@@H](O)[C@H]1O` (some centres unmarked) [mellibiose], the “adhesion of P. aeruginosa to intestinal epithelial cells” value [4] is given as “markedly decreased adhesion”, the “barrier function of intestinal epithelial cells” value [4] is given as “do not alter their barrier function” and the “binding affinity to PA-I” value (PA-I) is given as “highest binding affinity to date”.

Work on “recombinant human Interferon gamma (IFN-γ) (from UniProt P01579 24-166) (ligand)” yielded a percent of bacterial cells that bound IFN-γ [6] of 73%.

In the case of `C[C@@H](O)C(=O)O` [D-lactate], the “PA-I promoter activity” value [1] is reported as “no effect”.

For `Oc1ccc2c3c1O[C@H]1c4[nH]c5c(c4C[C@@]4(O)[C@@H](C2)N(CC2CC2)CC[C@]314)C[C@@]1(O)[C@H]2Cc3ccc(O)c4c3[C@@]1(CCN2CC1CC1)[C@H]5O4` [norbinaltorphimine, nor-binaltorphimine], the “dose that completely inhibits enhanced PCN production” value [3] was 200 µM and the “effect on U-50,488-enhanced PCN production” value [3] was “attenuates enhanced PCN production”.

In the case of `Nc1ncnc2c1ncn2[C@@H]1O[C@H](COP(=O)(O)OP(=O)(O)O)[C@@H](O)[C@H]1O` [ADP], the “PA-I expression, nucleosides and nucleotides” value [1] is reported as “no evident inducing effects”.

With dynorphin the “PCN production (OD520 nm)” value [3] was “enhanced PCN production in a dose-dependent manner”.

B1: adenosine deaminase: enzyme added to deplete the media of adenosine (protein, UniProt P00813 2-363, looked up)
Adenosine deaminase: AQTPAFDKPKVELHVHLDGSIKPETILYYGRRRGIALPANTAEGLLNVIGMDKPLTLPDFLAKFDYYMPAIAGCREAIKRIAYEFVEMKAKEGVVYVEVRYSPHLLANSKVEPIPWNQAEGDLTPDEVVALVGQGLQEGERDFGVKARSILCCMRHQPNWSPKVVELCKKYQQQTVVAIDLAGDETIPGSSLLPGHVQAYQEAVKSGIHRTVHAGEVGSAEVVKEAVDILKTERLGHGYHTLEDQALYNRLRQENMHFEICPWSSYLTGAWKPDTEHAVIRLKNDQANYSLNTDDPLIFKSTLDTDYQMTKRDMGFTEEEFKRLNINAAKSSFLPEDEKRELLDLLYKAYGMPPSASAGQNL
For B1, the “PA-I expression after depleting adenosine from media of HIF-1-a-activated Caco-2 cells” value ([1]; Caco-2) was “even greater increase in PA-I expression”.
